Tested on: cell line U937
Test: Optimization of glycan oxidation conditions, cell viability by trypan blue staining
Format: cell-based
Experimental: Method 2: Conditions for biocompatible oxime ligation and ^89Zr-labeling of monocytes. Reactive aldehydes were generated on the cell surface of the monocytic cell line U937 through sialic acid oxidation with NaIO4. Oxidation conditions were optimized by varying NaIO4 concentration (0.1-10 mM), pH (4.6-7.4), temperature (4 or 37° C.), and incubation time (15 min to 2 h). Subsequently, cells were incubated with AOD (100-500 μM) at room temperature for up to 1 h in the presence of aniline, and cells were washed and resuspended in PBS. Next, AOD-conjugated (5-7×10^6) cells were radiolabeled with ^89Zr (37-74 MBq) at room temperature for 1h, then washed thrice to eliminate unlabeled ^89Zr, and the radiochemical yield was measured by TLC (FIG. 9A-9D). Cell viability was assessed at each step via trypan blue staining (FIG. 8).

**Q.** Which “viability of U937 cells after oxidation” value (1 mM, up to 1 hour) does the source give for `[Na+].[O-][I+3]([O-])([O-])[O-]` [sodium periodate] here?
**A.** over 90%

**Q.** What about the “effect of glycan oxidation on cell viability, in words” value (tested temperature and reaction times) of the same compound?
**A.** minimal effect on cell viability
